Data: US20220380378A1 (ESSA Pharma, Inc., priority 2021, published 2022)

target: T1, androgen receptor (AR) (Homo sapiens, UniProt P10275, T878A); test: Androgen-induced PSA (6.1 kb)-luciferase reporter assay in LNCaP cells (R1881 1 nM); assay type: cell-based; design: endogenous in cells; host or cells: LNCaP; conditions: 24 h, read-out: PSA-Luc IC50 Range
T1 sequence (P10275 1-920 T878A): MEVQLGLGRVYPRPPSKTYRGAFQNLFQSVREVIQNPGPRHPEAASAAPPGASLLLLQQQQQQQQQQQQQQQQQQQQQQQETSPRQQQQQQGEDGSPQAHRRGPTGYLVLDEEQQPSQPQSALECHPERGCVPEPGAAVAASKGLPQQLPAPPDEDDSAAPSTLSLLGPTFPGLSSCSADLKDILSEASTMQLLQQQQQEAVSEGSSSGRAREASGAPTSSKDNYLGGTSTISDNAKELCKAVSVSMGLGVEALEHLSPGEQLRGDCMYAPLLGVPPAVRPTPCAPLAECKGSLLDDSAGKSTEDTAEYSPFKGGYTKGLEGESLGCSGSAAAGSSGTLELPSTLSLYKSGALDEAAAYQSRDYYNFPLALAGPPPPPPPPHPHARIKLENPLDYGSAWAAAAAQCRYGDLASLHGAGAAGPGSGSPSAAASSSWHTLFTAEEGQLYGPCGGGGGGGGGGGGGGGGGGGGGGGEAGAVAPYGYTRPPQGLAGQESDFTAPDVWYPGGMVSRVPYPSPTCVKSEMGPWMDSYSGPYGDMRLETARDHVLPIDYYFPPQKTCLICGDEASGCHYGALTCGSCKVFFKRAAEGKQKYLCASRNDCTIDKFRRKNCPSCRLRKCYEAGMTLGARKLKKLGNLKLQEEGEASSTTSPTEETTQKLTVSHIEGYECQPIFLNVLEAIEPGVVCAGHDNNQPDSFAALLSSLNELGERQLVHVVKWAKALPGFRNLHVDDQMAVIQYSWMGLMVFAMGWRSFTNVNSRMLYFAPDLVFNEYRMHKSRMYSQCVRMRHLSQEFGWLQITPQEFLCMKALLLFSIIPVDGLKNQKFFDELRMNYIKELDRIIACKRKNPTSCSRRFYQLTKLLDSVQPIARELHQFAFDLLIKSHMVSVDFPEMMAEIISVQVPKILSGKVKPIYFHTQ
Description: The PSA (6.1 kb)-luciferase reporter contains functional AREs (androgen response elements) to which AR binds in response to androgen to induce luciferase activity. LNCaP cells were transiently transfected with the PSA (6.1 kb)-luciferase reporter for 24 h, and then pretreated with vehicle (DMSO) or indicated concentration of representative compounds for one hour prior to the addition of synthetic androgen, R1881 (1 nM). After 24 h of incubation with R1881, the cells were harvested, and relative luciferase activities were determined (FIG. 1). To determine the IC50, treatments were normalized to vehicle control activity induced by R1881 (Table 2).
Luciferase Assay: Cells were lysed using Passive Lysis Buffer (Promega) and then collected into V-bottom 96-well tissue culture plates. Lysates were centrifuged at 4° C. for 5 minutes at 3000 rpm. To measure luminescence of LNCaP cell lysates the Firefly Luciferase Assay System (Promega) was employed, according to manufacturer's protocol. Relative luminescence units (RLU) in cell lysates were detected for 10 seconds using Promega GloMax-Multi Detection Luminometer (Promega). Values were normalized to protein content. GraphPad Prism graphing software was used to calculate IC50 values.
Statistical analyses were performed using GraphPad Prism (Version 6.01 for Windows; La Jolla, Calif., USA). Comparisons between treatment and control groups were compared using Two-Way ANOVA with post-hoc Dunnett's and Tukey's tests. Differences were considered statistically significant at P values less than 0.05.

Compound | IC50 [µM]
Cc1cc2cc(OCC34CC(NS(C)(=O)=O)(C3)C4)ccc2n1-c1cc(Cl)c(OCCCl)c(C#N)c1 [Compound A139] | > 2
CC(C)(c1ccc(OCc2ncncc2N)cc1)c1cc(Cl)c(OCCCl)c(C#N)c1 [Compound A98] | 0.5 to 2
COCc1c(F)cc(-n2ccc3cc(OCc4ccnc(NS(C)(=O)=O)n4)ccc32)cc1Cl [Compound A74] | 0.5 to 2
CC(C)(c1ccc(OCc2ccnc(NS(C)(=O)=O)n2)cc1)c1cc(C#N)c2ccc(Cl)cc2c1 [Compound A25] | 0.5 to 2
CC(C)(c1ccc(-c2ccc3sc(NS(C)(=O)=O)nc3c2)cc1)c1cc(Cl)c(OCCCl)c(C#N)c1 [Compound A275] | 0.5 to 2
CC(C)(c1ccc(-c2cnc3nc(NS(C)(=O)=O)cnc3c2)cc1)c1cc(Cl)c(OCCCl)c(C#N)c1 [Compound A219] | 0.5 to 2
CC(C)(c1ccc(OCC23CC(C2)N(S(C)(=O)=O)C3)cc1)c1cc(Cl)c(OCCCl)c(C#N)c1 [Compound A285] | 0.5 to 2
CS(=O)(=O)Nc1nccc(COc2ccc3c(c2)nnn3-c2cc(Cl)c(OCCCl)c(C#N)c2)n1 [Compound A40] | > 2
CC(C)(c1ccc(-c2cnc3c(NS(C)(=O)=O)nccc3c2)cc1)c1cc(Cl)c(OCCCl)c(C#N)c1 [Compound A199] | < 0.5
CC1CN(c2c(F)cc(C(C)(C)c3ccc(OCc4ccnc(NS(C)(=O)=O)n4)cc3)cc2C#N)C1 [Compound A252] | 0.5 to 2
CC1(NS(C)(=O)=O)CN(CCc2ccc3c(ccn3-c3cc(Cl)c(OCCCl)c(C#N)c3)c2)C1 [Compound A244] | > 2
CS(=O)(=O)Nc1cc(NCc2ccc3c(ccn3-c3cc(Cl)c(OCCCl)c(C#N)c3)c2)ccn1 [Compound A78] | > 2
CS(=O)(=O)N1CC2(CC(Oc3ccc4c(ccn4-c4cc(Cl)c(OCCCl)c(C#N)c4)c3)C2)C1 [Compound A163] | 0.5 to 2
Cc1cc(-c2ccc3c(ccn3-c3cc(Cl)c(OCCCl)c(C#N)c3)c2)ccc1CNS(C)(=O)=O [Compound A168] | < 0.5
CC(C)(c1ccc(OCc2ccnc(NS(C)(=O)=O)n2)cc1)c1cc(F)c(N2CC(CO)C2)c(C#N)c1 [Compound A253] | > 2
CS(=O)(=O)Nc1ncc(Cn2cc3ccc(-c4cc(Cl)c(OCCCl)c(C#N)c4)cc3n2)cn1 [Compound A160] | > 2
CC(C)(c1ccc(-c2cc3cnc(NS(C)(=O)=O)nn3c2)cc1)c1cc(Cl)c(OCCCl)c(C#N)c1 [Compound A263] | > 2
CC(C)CNc1ncc(C(C)(C)c2ccc(OCc3ccnc(NS(C)(=O)=O)n3)cc2)cc1Cl [Compound A67] | > 2
CS(=O)(=O)Nc1ncc(COc2ccc3c(ccn3-c3cc(Cl)c(OCCCl)c(C#N)c3)c2)cn1 [Compound A29, N-(5-(((1-(3-chloro-4-(2-chloroethoxy)-5-cyanophenyl)-1H-indol-5-yl)oxy)methyl)pyrimidin-2-yl)methanesulfonamide] | 0.5 to 2
CC(C)(c1ccc(OCc2ccnc(NS(C)(=O)=O)n2)cc1)c1cnc(N2CCCCC2)c(Cl)c1 [Compound A105] | > 2
CC(C)(c1ccc(OCc2ccnc(NS(C)(=O)=O)c2N)cc1)c1cc(Cl)c(OCCCl)c(C#N)c1 [Compound A97] | < 0.5
CS(=O)(=O)Nc1nccc(COc2ccc3c(ccn3-c3cc(C#N)c(OCCCl)c(C(F)(F)F)c3)c2)n1 [Compound A21] | 0.5 to 2
CS(=O)(=O)N1CCN(CCOc2ccc3c(ccn3-c3cc(Cl)c(OCCCl)c(C#N)c3)c2)CC1 [Compound A206] | 0.5 to 2
CS(=O)(=O)Nc1nccc(COc2ccc3c(c2)OCCN3c2cc(Cl)c(OCCCl)c(C#N)c2)n1 [Compound A28, N-(4-(((4-(3-chloro-4-(2-chloroethoxy)-5-cyanophenyl)-3,4-dihydro-2H-benzo[b][1,4]oxazin-7-yl)oxy)methyl)pyrimidin-2-yl)methanesulfonamide] | 0.5 to 2
CC(C)(c1ccc(OCc2ccnc(NS(C)(=O)=O)n2)cc1)c1cc(F)c(N2CCC2)c(C#N)c1 [Compound A251] | 0.5 to 2

Compound | IC50 [µM]
CC(C)(c1ccc(-c2cnc3c(c2)OCCN3S(C)(=O)=O)cc1)c1cc(Cl)c(OCCCl)c(C#N)c1 [Compound A229] | 0.5 to 2
CC(C)(c1ccc(OCc2ccnc(NS(C)(=O)=O)n2)cc1)c1cc(Cl)c(N2CC3(CCC3)C2)c(C#N)c1 [Compound A267] | 0.5 to 2
CC(C)(c1ccc(OCc2cnc(NS(C)(=O)=O)nc2N2CCNCC2)cc1)c1cc(Cl)c(OCCCl)c(C#N)c1 [Compound A120] | < 0.5
CS(=O)(=O)N1CC(F)(COc2ccc3c(ccn3-c3cc(Cl)c(OCCCl)c(C#N)c3)c2)C1 [Compound A137] | 0.5 to 2
CC(C)(c1ccc(-c2ccn3c(S(C)(=O)=O)c(N)nc3c2)cc1)c1cc(Cl)c(OCCCl)c(C#N)c1 [Compound A112] | > 2
COc1c(Cl)cc(C(C)(C)c2ccc(OCC34CC(NS(C)(=O)=O)(C3)C4)cc2)cc1C#N [Compound A268] | 0.5 to 2
CC(C)(c1ccc(OCc2ccnc(NS(C)(=O)=O)n2)cc1)c1cc(Cl)c(N2CCOCC2)c(C#N)c1 [Compound A283] | 0.5 to 2
CS(=O)(=O)NC12CC(COc3ccc4c(ccn4-c4cc(Cl)c(OCC(F)(F)F)c(C#N)c4)c3)(C1)C2 [Compound A167] | 0.5 to 2
CS(=O)(=O)Nc1ncc2cc(-c3ccc4c(ccn4-c4cc(Cl)c(OCCCl)c(C#N)c4)c3)ccc2n1 [Compound A122] | > 2
CS(=O)(=O)Nc1nccc(COc2ccc(-n3ccc4c(C#N)c(OCCCl)c(Cl)cc43)cc2)n1 [Compound A27] | 0.5 to 2
CS(=O)(=O)N1CC2(CCN(Cc3ccc4c(ccn4-c4cc(Cl)c(OCCCl)c(C#N)c4)c3)CC2)C1 [Compound A235] | > 2
CS(=O)(=O)Nc1nccc(COc2ccc3c(-c4cc(Cl)c(OCCCl)c(C#N)c4)cnn3c2)n1 [Compound A64] | > 2
CS(=O)(=O)N[C@H]1CC[C@@H](COc2ccc3c(ccn3-c3cc(Cl)c(OCCCl)c(C#N)c3)c2)CC1 [Compound A208] | > 2
CS(=O)(=O)NC1(CCOc2ccc3c(ccn3-c3cc(Cl)c(OCCCl)c(C#N)c3)c2)CC1 [Compound A227] | 0.5 to 2
CC(C)(c1ccc(Oc2cccc3nc(NS(C)(=O)=O)ncc23)cc1)c1cc(Cl)c(OCCCl)c(C#N)c1 [Compound A117] | 0.5 to 2
CS(=O)(=O)Nc1nccc(COc2ccc3cc(-c4cc(Cl)c(OCCCl)c(C#N)c4)ccc3c2)n1 [Compound A148] | > 2
CC(C)(c1ccc(OCc2ccnc(NS(C)(=O)=O)n2)cc1)c1cnc(N2CC3(CCC3)C2)c(C#N)c1 [Compound A166] | > 2
CC(C)(c1ccc(-c2cnc3c(c2)CCCC3NS(C)(=O)=O)cc1)c1cc(Cl)c(OCCCl)c(C#N)c1 (centres unmarked) [Compound A216] | > 2
CS(=O)(=O)NC12CC(C(=O)Nc3ccc4c(ccn4-c4cc(Cl)c(OCCCl)c(C#N)c4)c3)(C1)C2 [Compound A133] | > 2
CS(=O)(=O)Nc1nccc(COc2ccc3c(cnn3-c3cc(Cl)c(OCCCl)c(C#N)c3)c2)n1 [Compound A60] | > 2
CN(C1CCN(Cc2ccc3c(ccn3-c3cc(Cl)c(OCCCl)c(C#N)c3)c2)CC1)S(C)(=O)=O [Compound A237] | > 2
COc1c(Cl)cc(C2CCc3cc(-c4ccc5nc(NS(C)(=O)=O)cnc5c4)ccc32)cc1C#N (centres unmarked) [Compound A276] | 0.5 to 2
CS(=O)(=O)N[C@H]1C[C@@H](COc2ccc3c(ccn3-c3cc(Cl)c(OCCCl)c(C#N)c3)c2)C1 [Compound A136] | 0.5 to 2
CS(=O)(=O)N1CC2CC(Oc3ccc4c(ccn4-c4cc(Cl)c(OCCCl)c(C#N)c4)c3)CC2C1 (centres unmarked) [Compound A223] | 0.5 to 2
CC(C)(c1ccc(OCc2ccnc(NS(C)(=O)=O)n2)cc1)c1cc(F)c(N2CCCCC2)c(C#N)c1 [Compound A261] | 0.5 to 2
